Structures can show the parent of a compound that is named as a salt.

For one test, the target named is T1, human NaPi-IIb (Homo sapiens, UniProt O95436).
T1 construct: expressed in transfected cells
T1 sequence (O95436 1-690): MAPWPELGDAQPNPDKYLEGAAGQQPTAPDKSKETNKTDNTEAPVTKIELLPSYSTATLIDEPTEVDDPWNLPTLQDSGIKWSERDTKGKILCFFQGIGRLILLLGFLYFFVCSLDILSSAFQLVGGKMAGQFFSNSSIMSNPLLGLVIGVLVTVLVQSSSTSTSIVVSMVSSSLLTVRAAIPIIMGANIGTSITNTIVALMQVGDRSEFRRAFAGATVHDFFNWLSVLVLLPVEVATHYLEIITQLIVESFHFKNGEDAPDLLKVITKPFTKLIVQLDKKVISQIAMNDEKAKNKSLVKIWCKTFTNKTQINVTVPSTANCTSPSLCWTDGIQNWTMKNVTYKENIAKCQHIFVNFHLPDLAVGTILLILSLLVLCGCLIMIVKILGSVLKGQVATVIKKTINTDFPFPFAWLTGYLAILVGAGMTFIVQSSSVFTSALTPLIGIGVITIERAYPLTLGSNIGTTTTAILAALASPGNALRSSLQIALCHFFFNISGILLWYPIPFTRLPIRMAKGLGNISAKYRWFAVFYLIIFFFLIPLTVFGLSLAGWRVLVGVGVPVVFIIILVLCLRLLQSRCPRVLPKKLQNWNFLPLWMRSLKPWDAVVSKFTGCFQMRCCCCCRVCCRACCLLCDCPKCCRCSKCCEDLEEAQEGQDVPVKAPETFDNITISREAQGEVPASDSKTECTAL
In words: Inhibitory effect on 33PO4 uptake into human NaPi-IIb-expressing CHO cells. In kind it is cell-based. Particulars: read-out: IC50. As for the experimental part: Test Example 2: Inhibitory Effect on PO4 Uptake into Human NaPi-IIb-Expressing Cell CHO cells were transfected with human NaPi-IIb expression plasmids, and a stably human NaPi-IIb-expressing cell line was obtained using G418. The human NaPi-IIb-expressing cells were inoculated to a 96-well plate and incubated overnight in a CO2 incubator. […] After a given time, a 1/20 volume of buffer A containing ^33PO4 was added thereto and reacted at room temperature. After washing with ice-cold buffer A, a liquid scintillator was added to each reaction mixture, and the amount of ^33PO4 uptake was measured using TopCount.
On to `CSc1cc(-c2cc(C(F)(F)F)ccc2NC(=O)C2=C(O)[C@@]3(C)CCCN3N(Cc3cccc(F)c3F)C2=O)cnc1C#N` [Example 113, (4aR)—N-[2-(6-Cyano-5-methylsulfanylpyridin-3-yl)-4-(trifluoromethyl)phenyl]-1-[(2,3-difluorophenyl)methyl]-4-hydroxy-4a-methyl-2-oxo-6,7-dihydro-5H-pyrrolo[1,2-b]pyridazine-3-carboxamide], for which the IC50 turned out to be 15.5 µM.
Still for that read-out and setting: to `Cc1ncc(-c2cc(C(F)(F)F)ccc2NC(=O)C2=C(O)[C@@]3(C)CCCN3N(Cc3cccc(F)c3F)C2=O)cc1C#N` [Example 109, (4aR)—N-[2-(5-Cyano-6-methylpyridin-3-yl)-4-(trifluoromethyl)phenyl]-1-[(2,3-difluorophenyl)methyl]-4-hydroxy-4a-methyl-2-oxo-6,7-dihydro-5H-pyrrolo[1,2-b]pyridazine-3-carboxamide] belongs 9.4 µM.
As for `Cc1c(C#N)ncnc1-c1cc(Cl)ccc1NC(=O)C1=C(O)[C@H](C(C)(C)C)N(C)N(Cc2ccc(OCCN3CCOCC3)c(F)c2F)C1=O` [Example 274], the IC50 stood at 17 µM.
As for `CN1N(Cc2ccc(OCCN3CCOCC3)c(F)c2F)C(=O)C(C(=O)Nc2ccc(C(F)(F)F)cc2-c2ccc(C(F)(F)F)nc2)=C(O)C12CCC2` [Example 282], the IC50 is 11.1 µM.
As to `Cc1ccc(CN2C(=O)C(C(=O)Nc3ccc(C(F)(F)F)cc3-c3cc(C(F)(F)F)ncn3)=C(O)[C@@]3(C)CCCN23)cc1` [Example 187], the IC50 was determined as 6.7 µM.
With `Cc1cccc(CN2C(=O)C(C(=O)Nc3ccc(C(F)(F)F)cc3-c3cc(C(F)(F)F)ncn3)=C(O)[C@@]3(C)CCCN23)c1F` [Example 215], the IC50 worked out at 6.2 µM.
On to `C[C@]12CCCN1N(Cc1ccccc1Br)C(=O)C(C(=O)Nc1cc(F)c(Br)c(F)c1)=C2O` [Example 216], for which the IC50 amounted to 8 µM.
Take `COc1cccc(-c2cc(C(F)(F)F)ccc2NC(=O)C2=C(O)[C@@]3(C)CCCN3N(Cc3ccc(C#CCOCCOCCO)c(F)c3F)C2=O)c1OC` [Example 139]: the IC50 was 17 µM.
Still for that read-out and setting: to `CSc1ccc(-c2nc(C(F)(F)F)ccc2NC(=O)C2=C(O)[C@@]3(C)CCCN3N(Cc3cccc(F)c3F)C2=O)cn1` [Example 105] belongs 6.3 µM.
On the same count and under the same terms, as for `C[C@]12CCCN1N(Cc1cccc(C#N)c1)C(=O)C(C(=O)Nc1ccc(C(F)(F)F)cc1-c1cc(C(F)(F)F)ncn1)=C2O` [Example 179], the figure is 18.9 µM; as for `Cc1c(Cl)ncnc1-c1cc(Cl)ccc1NC(=O)C1=C(O)[C@H](C(C)(C)C)N(C)N(Cc2ccc(OCCN3CCOCC3)c(F)c2F)C1=O` [Example 275], 16.8 µM.
On to `COc1cc(CN2C(=O)C(C(=O)Nc3ccc(C(F)(F)F)cc3-c3ccc(C(F)(F)F)nc3)=C(O)[C@@]3(C)CCCN23)cc(OC)c1` [Example 202], for which the IC50 came to 6.1 µM.
Same read-out and setting: as for `CN1N(Cc2ccc(OCCN3CCOCC3)c(F)c2F)C(=O)C(C(=O)Nc2ccc(C(F)(F)F)cc2-c2cc(C(F)(F)F)ncn2)=C(O)C12CCCC2` [Example 318, 7-[[2,3-Difluoro-4-(2-morpholin-4-ylethoxy)phenyl]methyl]-10-hydroxy-6-methyl-8-oxo-N-[4-(trifluoromethyl)-2-[6-(trifluoromethyl)pyrimidin-4-yl]phenyl]-6,7-diazaspiro[4.5]dec-9-ene-9-carboxamide], the figure is 8.6 µM; as for `COc1ncc(-c2cc(C(F)(F)F)ccc2NC(=O)C2=C(O)[C@@]3(C)CCCN3N(Cc3cccc(F)c3F)C2=O)c(OC)n1` [Example 72], 8.3 µM.
In the case of `CCC1(CC)C(O)=C(C(=O)Nc2ccc(C(F)(F)F)cc2-c2ccc(C(F)(F)F)nc2)C(=O)N(Cc2ccc(OCCN3CCOCC3)c(F)c2F)N1C` [Example 293], the IC50 was 10.7 µM.
Consider `C[C@]12CCCN1N(Cc1c(F)cccc1Cl)C(=O)C(C(=O)Nc1ccc(C(F)(F)F)cc1-c1ccc(C(F)(F)F)nc1)=C2O` [Example 204], for which the IC50 turned out to be 1 µM.
Take `C[C@]12CCCN1N(Cc1ccc(SCCN3CCOCC3)c(F)c1F)C(=O)C(C(=O)Nc1ccc(C(F)(F)F)cc1-c1ccc(C(F)(F)F)nc1)=C2O` [Example 163, (4aR)-1-[[2,3-Difluoro-4-(2-morpholin-4-ylethylsulfanyl)phenyl]methyl]-4-hydroxy-4a-methyl-2-oxo-N-[4-(trifluoromethyl)-2-[6-(trifluoromethyl)pyridin-3-yl]phenyl]-6,7-dihydro-5H-pyrrolo[1,2-b]pyridazine-3-carboxamide hydrochloride]: the IC50 amounted to 6.8 µM.
On to `COc1cccc(-c2cc(C(F)(F)F)ccc2NC(=O)C2=C(O)[C@@]3(C)CCCN3N(Cc3ccc(C#CCOCCCCO)c(F)c3F)C2=O)c1OC` [Example 123, (4aR)-1-[[2,3-Difluoro-4-[3-(4-hydroxybutoxy)prop-1-ynil]phenyl]methyl]-N-[2-(2,3-dimethoxyphenyl)-4-(trifluoromethyl)phenyl]-4-hydroxy-4a-methyl-2-oxo-6,7-dihydro-5H-pyrrolo[1,2-b]pyridazine-3-carboxamide], for which the IC50 worked out at 14.8 µM.
The same measure, in the same setting: to `CN1[C@@H](C(C)(C)C)C(O)=C(C(=O)Nc2cc(F)c(Br)c(F)c2)C(=O)N1Cc1cccc(F)c1F` [Example 240] belongs 9.1 µM; to `C[C@]12CCCN1N(Cc1cc(F)c(F)cc1F)C(=O)C(C(=O)Nc1cc(F)c(Br)c(F)c1)=C2O` [Example 194], 19.3 µM; to `C[C@]12CCCN1N(Cc1ccc(F)cc1)C(=O)C(C(=O)Nc1ccc(C(F)(F)F)cc1-c1ccc(C(F)(F)F)nc1)=C2O` [Example 199], 1.8 µM.
Still for that read-out and setting: to `C[C@]12CCCN1N(Cc1c(F)cc(CCCCCCCOC[C@H](O)[C@@H](O)CO)cc1F)C(=O)C(C(=O)Nc1ccc(C(F)(F)F)cc1-c1ccc(C(F)(F)F)nc1)=C2O` [Example 125] belongs 1.3 µM.

The test is the same for the next values; noted with them: read-out: IC50 against 33PO4 uptake into human NaPi-IIb-expressing cells.
Turning to `COCCN1CCC[C@H]1COc1ccc(CN2C(=O)C(C(=O)Nc3ccc(C(F)(F)F)cc3-c3cc(C(F)(F)F)ncn3)=C(O)C3(CCC3)N2C)c(F)c1F` [Example 404, 6-[[2,3-Difluoro-4-[[(2S)-1-(2-methoxyethyl)pyrrolidin-2-yl]methoxy]phenyl]methyl]-9-hydroxy-5-methyl-7-oxo-N-[4-(trifluoromethyl)-2-[6-(trifluoromethyl)pyrimidin-4-yl]phenyl]-5,6-diazaspiro[3.5]non-8-ene-8-carboxamide], the half-inhibitory concentration (IC50) was 10.1 µM.
As for `CN(CCOCCOc1ccc(CN2C(=O)C(C(=O)Nc3ccc(C(F)(F)F)cc3-c3cc(C(F)(F)F)ncn3)=C(O)C3(CCCC3)N2C)c(F)c1F)C[C@H](O)[C@@H](O)[C@H](O)[C@H](O)CO` [Example 420, 7-[[2,3-Difluoro-4-[2-[2-[methyl-[(2S,3R,4R,5R)-2,3,4,5,6-pentahydroxyhexyl]amino]ethoxy]ethoxy]phenyl]methyl]-10-hydroxy-6-methyl-8-oxo-N-[4-(trifluoromethyl)-2-[6-(trifluoromethyl)pyrimidin-4-yl]phenyl]-6,7-diazaspiro[4.5]dec-9-ene-9-carboxamide], the IC50 is 18.6 µM.
On the same count and under the same terms, as for `CN1N(Cc2ccc(OCCN3CCC(N4CCOCC4)CC3)c(F)c2F)C(=O)C(C(=O)Nc2ccc(C(F)(F)F)cc2-c2cc(C(F)(F)F)ncn2)=C(O)C12CCCC2` [Example 374], the figure is 16.4 µM.
Turning to `CN1N(Cc2ccc(OCCN3[C@@H]4COC[C@H]3C4)c(F)c2F)C(=O)C(C(=O)Nc2ccc(C(F)(F)F)cc2-c2cc(C(F)(F)F)ncn2)=C(O)C12CCCC2` [Example 380], the IC50 amounted to 20.2 µM.
In the case of `CN1N(Cc2ccc(OCCN3CC(F)(F)C3)c(F)c2F)C(=O)C(C(=O)Nc2ccc(C(F)(F)F)cc2-c2cc(C(F)(F)F)ncn2)=C(O)C12CCCC2` [Example 369], the IC50 came to 21.8 µM.
As to `COC(=O)CN(C)CCOc1ccc(CN2C(=O)C(C(=O)Nc3ccc(C(F)(F)F)cc3-c3cc(C(F)(F)F)ncn3)=C(O)C3(CCCC3)N2C)c(F)c1F` [Example 368], the IC50 was 14.7 µM.
In the case of `CN1N(Cc2ccc(OCCN3CCOCC3(C)C)c(F)c2F)C(=O)C(C(=O)Nc2ccc(C(F)(F)F)cc2-c2cc(C(F)(F)F)ncn2)=C(O)C12CCCC2` [Example 371], the IC50 came out at 8.5 µM.
On to `CN1N(Cc2ccc(OCCCCOCCO)c(F)c2F)C(=O)C(C(=O)Nc2ccc(C(F)(F)F)cc2-c2cc(C(F)(F)F)ncn2)=C(O)C12CCCC2` [Example 396], for which the IC50 is 9.5 µM.
Regarding `CN1N(Cc2ccc(OCCN3CCN(CCOCCO)CC3)c(F)c2F)C(=O)C(C(=O)Nc2ccc(C(F)(F)F)cc2-c2cc(C(F)(F)F)ncn2)=C(O)C12CCCC2` [Example 378], the IC50 was determined as 18 µM.
On to `COCCN(C)CCN(C)c1ccc(CN2C(=O)C(C(=O)Nc3ccc(C(F)(F)F)cc3-c3cc(C(F)(F)F)ncn3)=C(O)C3(CCCC3)N2C)c(F)c1F` [Example 442], for which the IC50 worked out at 6.3 µM.

Values taken from US9499553B2 (CHUGAI SEIYAKU KABUSHIKI KAISHA, priority 2013, dated 2016).
